Assay results as given in PubChem BioAssay (NCI).
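Cultured in 96-well plates, cells were exposed to test compound for 48 hours across five concentrations. At the TGI there is no net growth.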 Peptide text beside a SMILES is read from it. * marks the point of attachment. X34 = O=C(c1ccc(-c2ccc(Cl)cc2Cl)o1)*

How the values were obtained:
Test in all cases: NCI anticancer screen, dose series, 48 h
[1] = test system: A549 NSCLC
[2] = test system: HCT-116 colon
[3] = test system: HL-60(TB) leukemia
[4] = test system: HOP-62 NSCLC
[5] = test system: K-562 leukemia
[6] = test system: MOLT-4 leukemia
[7] = test system: NCI/ADR-RES ovarian
[8] = test system: SK-MEL-2 melanoma
[9] = test system: SK-OV-3 ovarian
[10] = test system: SNB-19 CNS
[11] = test system: ACHN renal

Compound	TGI [1]	TGI [2]	TGI [3]	TGI [4]	TGI [5]	TGI [6]	TGI [7]	TGI [8]	TGI [9]	TGI [10]	TGI [11]
CC(ON1[C@](C)(c2ccccc2)CC[C@@]1(C)c1ccccc1)c1ccccc1 (stereo not given in full)	> 100 µM	> 100 µM	61.5 µM	> 100 µM	> 100 µM	46.1 µM	> 100 µM	50.5 µM	> 100 µM	93 µM	
CCOc1ccccc1Nc1ccc(N)cc1S(=O)(=O)O	> 100 µM	> 100 µM		> 100 µM	> 100 µM	> 100 µM	> 100 µM	> 100 µM		> 100 µM	> 100 µM
O=Cc1ccccc1CCn1c(=O)c2cc3c(=O)n(CCc4ccccc4C=O)c(=O)c3cc2c1=O	> 100 µM	> 100 µM	> 100 µM		> 100 µM	> 100 µM		> 100 µM	> 100 µM	> 100 µM	> 100 µM
COC(=O)C(CC(C)C)NC(=O)C(Cc1ccccc1)NC(=O)C1CCCN1C(=O)C(CO)NC(=O)c1ccc(-c2ccc(Cl)cc2Cl)o1 (stereo not given) (X34-SPFL-OMe; configuration not given here)	91.2 µM	92.1 µM	69.6 µM		89.2 µM	80 µM	92.8 µM	33.7 µM	25.7 µM	> 100 µM	> 100 µM
CCOc1cc(C2SCC(=O)N2c2ccc3c(c2)Oc2c(Cl)c4c(c(Cl)c2=N3)Oc2cc(N3C(=O)CSC3c3ccc(O)c(OCC)c3)ccc2N=4)ccc1O (stereo not given)	83.4 µM	41.4 µM	> 100 µM	> 100 µM	> 100 µM	> 100 µM	> 100 µM	93.9 µM			73.4 µM
COc1ccc(C(=O)CCN(C)C)c2ccccc12	> 100 µM	52.5 µM	37 µM	> 78.3 µM	60 µM	46 µM	> 100 µM	39.2 µM	> 100 µM	> 100 µM	34 µM
Cn1c2ccccc2c2c3c(c4c5ccccc5n(C5OC(CO)C(O)C(O)C5O)c4c21)C(=O)OC3=O (stereo not given)	> 100 µM	> 100 µM		> 100 µM	> 100 µM	> 100 µM	> 100 µM	> 100 µM	> 100 µM	> 100 µM	> 100 µM
CC[C@@H]1CSC(/C=C/C2OC3OC(C)(C)OC3C3OC(C)(C)OC23)=N1 (stereo not given in full)	49.6 µM	14.2 µM	5.67 µM	59.4 µM	62.4 µM	26.6 µM	95.7 µM	29.8 µM	91.4 µM	54.8 µM	21.2 µM
COc1cc(NC(C)=O)ccc1C(=O)N/N=C/c1ccco1	> 100 µM	> 100 µM	> 100 µM	> 100 µM	> 100 µM	> 100 µM	> 100 µM	> 100 µM	> 100 µM	> 100 µM	> 100 µM
OCC(O)COCn1cc(Cn2ncc3c(NCc4ccccc4)ncnc32)nn1 (stereo not given)	> 100 µM	> 100 µM	> 100 µM	> 100 µM		> 100 µM	> 100 µM	> 100 µM	> 100 µM	> 100 µM	> 100 µM
CC(C)CNCCc1ccccn1	> 100 µM	> 100 µM	> 100 µM	> 100 µM			> 100 µM	> 100 µM	> 100 µM	> 100 µM	> 100 µM
Nc1ncnc2c1ncn2[C@@H]1O[C@H](COP(=O)(O)OP(=O)(O)OC[C@H]2O[C@@H](OCCCO)[C@H](O)[C@@H]2O)[C@@H](O)[C@H]1O	> 100 µM	> 100 µM	> 100 µM	> 100 µM	> 100 µM	> 100 µM	> 100 µM	> 100 µM	> 100 µM	> 100 µM	> 100 µM
CC1(O)C2(c3ccccc3)CCC[N+]1(C)CC2 (stereo not given)		> 100 µM	> 100 µM	> 100 µM	> 100 µM	> 100 µM	> 100 µM	> 100 µM	> 100 µM	> 100 µM	
CC(C)C1=CC2=CC[C@@H]3[C@](C)(CCC[C@@]3(C)C(=O)O)[C@H]2CC1	> 100 µM	> 80.2 µM	> 88.3 µM	> 100 µM	> 100 µM	> 75.7 µM		> 78.9 µM	> 100 µM	> 100 µM	> 100 µM
COc1ccc(C(=O)c2nc3ccccc3nc2N2CCN(c3ccccc3)CC2)cc1OC	> 100 µM	> 100 µM	> 100 µM	> 100 µM	> 100 µM	> 100 µM	> 100 µM	> 100 µM	> 100 µM	> 100 µM	> 100 µM
C1=CC=C2NCCc3cccc(c3)CCNC3=CC=CC=CC3=NCCCCCCN=C2C=C1	> 100 µM		20.9 µM	34.4 µM	> 100 µM	38.3 µM		79.8 µM	70.6 µM	> 100 µM	> 100 µM
O=C1NC(=NCc2ccc(F)cc2)N/C1=C\c1ccccc1Cl	41.8 µM	30.3 µM	36.5 µM	35.3 µM	> 100 µM	> 100 µM	86.1 µM	33.3 µM	63.2 µM	39.7 µM	49.1 µM
CCCCC(=O)c1c(O)ccc2c(C)cc(=O)oc12	> 100 µM	> 100 µM	> 100 µM	> 100 µM	> 100 µM	> 100 µM	> 100 µM	> 100 µM		> 100 µM	> 100 µM
